Eight substances from publication PMC8398472, “Anticancer Diiron Vinyliminium Complexes: A Structure–Activity Relationship Study” (Pharmaceutics, 2021) can be followed below.

One assay concerns the target T1, cytochrome c (Cyt c) (Equus caballus, UniProt P00004).
T1 construct: purchased
Description: ESI-MS interaction with cytochrome c. The note with it: 24 h at 37 °C, protein-to-metal ratio 1:2, pH 6.8. Format: binding. Here is the method: • (a) Sample preparation. Cytochrome c (Cyt c) was commercially available and used as received; the TrxR dodecapeptide (TrxR-pept) was synthesized as reported in the literature. The stock solutions of the selected iron-based complexes were prepared in DMSO up to a final concentration of 10^−2 M. The stock solution of TrxR-pept was prepared in LC-MS grade water by dissolving the required amount of lyophilized peptide to reach a final concentration of 10^−3 M. The stock solution of Cyt c 10^−3 M was prepared by dissolving the required amount of protein in 2 mM ammonium acetate solution at pH 6.8. In the interaction tests with TrxR-pept, opportune aliquots of each complex and TrxR-pept stock solutions were mixed and diluted with LC-MS grade water to 10^−4 M final concentration and a TrxR-pept/complex ratio of 1:1. For each iron-based complex/Cyt c pair, appropriate aliquots of the respective stock solutions were mixed and subsequently diluted with 2 mM ammonium acetate solution (pH 6.8) to a final protein concentration of 10^−4 M and a protein-to-metal molar ratio of 1:2. All the sample mixtures were incubated for 24 h at 37 °C. Subsequently, opportune dilutions were performed as detailed: • – the TrxR-pept containing solutions were further diluted with LC-MS grade water to a final TrxR-pept concentration of 10^−5 M and added with 0.1% v/v of formic acid just before infusion in the mass spectrometer; • – the protein-containing solutions were diluted with 2 mM ammonium acetate solution (pH 6.8) to a final protein concentration of 10^−6 M and added with 0.1% v/v of formic acid just before infusion. • (b) ESI-MS instrumental parameters. The ESI mass spectra were acquired using a TripleTOF® 5600^+ high-resolution mass spectrometer (Sciex, Framingham, MA, USA), with a DuoSpray® interface operating with an ESI probe. Respective ESI mass spectra were acquired through direct infusion at 7 μL min^−1 flow rate. The ESI source parameters were optimized for each biomolecule and were as follows: for TrxR dodecapeptide positive polarity, ionspray voltage floating 5500 V, temperature 0, ion source gas 1 (GS1) 35 L min^−1; ion source gas 2 (GS2) 0; curtain gas (CUR) 20 L min^−1, declustering potential (DP) 300 V, collision energy (CE) 10 V, range 1070–1600 m/z; for Cyt c positive polarity, ionspray voltage floating 5500 V, temperature 0, ion source gas 1 (GS1) 35 L min^−1; ion source gas 2 (GS2) 0; curtain gas (CUR) 20 L min^−1, declustering potential (DP) 180 V, collision energy (CE) 10 V, range 500–1800 m/z. For acquisition, Analyst TF software 1.7.1 (Sciex, Framingham, MA, USA) was used and deconvoluted spectra were obtained by using the Bio Tool Kit micro-application v.2.2 embedded in PeakView^TM software v.2.2 (Sciex, Framingham, MA, USA).

For a further assay, the system named is A2780 cells. Description: Intracellular ROS production, DCFH-DA assay. The class given is cell-based, human. To be noted: 20 μM, up to 24 h, DCFH-DA fluorescence. Here is the method:
The intracellular production of reactive oxygen species (ROS) upon treatment of the compounds 3b, 4a, 4c, 5b and 6c was measured by using the DCFH-DA (2′,7′-dichlorodihydrofluorescein diacetate, Merck) assay, based on cellular uptake of the non-fluorescent diacetate following deacetylation by esterases (2′,7′-dichlorodihydrofluorescein, DCFH) and oxidation to the fluorescent dichlorofluorescein (2′,7′-dichlorofluorescein, DCF). A2780 cells were seeded at concentration of 4 × 10^4 cells/well/90 µL of complete growth medium into 96-well plates. After overnight incubation, the cells were treated following manufacturer protocol. 100 µL of a solution containing the fluorogenic probe were added to the culture medium and, after 1 h of incubation with 5% CO2 at 37 °C, the cells were exposed to a final concentration of 20 µM of the tested complexes; H2O2 100 µM was used as a positive control. Stock solutions of compounds were prepared as described above; cells incubated with equal amounts of DMSO in supplemented RPMI were used as control. The fluorescence was measured up to 24 h with an excitation wavelength of 485 nm and with a 535 nm emission filter by Multilabel Counter (PerkinElmer). For each tested compound, assay was performed on triplicate. The data were reported as mean ± standard deviation, statistical differences were analyzed using one-way analysis of variance (ANOVA) and a Tukey test was used for post hoc analysis. A p-value < 0.05 is considered statistically significant.

The subject of assay [1] is human ovarian carcinoma cisplatin-resistant A2780cisR. As to the kind of experiment: Cytotoxicity, WST-1 cell viability assay, A2780cisR. To be noted: for IC50: 72 h exposure. The class given is cell-based. Here is the method: In vitro cytotoxicity investigations were carried out by using human ovarian carcinoma cisplatin-sensitive A2780 (ECACC93112519), human ovarian carcinoma cisplatin-resistant A2780cisR (ECACC 93112517) and mouse embryo fibroblasts Balb/3T3 clone A31 (ATCC CCL-163) cell lines. A2780 and A2780cisR were purchased from the European Collection of Authenticated Cell Cultures (ECACC), and Balb/3T3 clone A31 cell line from the American Type Culture Collection (ATCC).
A2780 and A2780cisR cells were routinely cultured in RPMI 1640 (Merck) containing 2 mM of L-glutamine (Merck), 1% of penicillin/streptomycin solution (Merck—10 000 U mL^−1: 10 mg mL^−1), 10% of fetal bovine serum (Merck—FBS) and antimycotic (InvivoGen, USA), and Balb/3T3 clone A31 in Dulbecco’s modified Eagle medium (Merck—DMEM) supplemented with 4 mM of L-glutamine, 1% of penicillin/streptomycin solution, 10% of calf serum (Merck) and antimycotic. […] The cultures were maintained at 37 °C and in a 5% CO2-enriched atmosphere.
A2780, A2780cisR and Balb/3T3 clone A31 cells were seeded in 96-well tissue culture polystyrene plates at a concentration of 3 × 10^3, 6 × 10^3 and 1 × 10^3 cells per well, respectively. After overnight incubation, the cells were treated with different concentrations (0–100 µM) of the selected compounds for 72 h at 37 °C in a 5% atmosphere of CO2. Stock solutions of compounds were prepared in DMSO and sequentially diluted in medium (final DMSO concentration of 0.5%). […] At the end of the incubation time, cell viability was assessed by means of WST-1 tetrazolium salt reagent (Roche). Briefly, cells were incubated for 4 h with the tetrazolium salt reagent diluted 1:10, at 37 °C and 5% CO2. Measurements of formazan dye absorbance, which directly correlates with the number of viable cells, were carried out with a micro-plate reader (Biorad) at 450 nm, using 655 nm as reference wavelength. The 50% inhibitory concentration (IC50) refers to compound concentration at which 50% of cell death is observed with respect to the control. For each tested compound, assay was performed on triplicate. The concentration effect curves were generated by nonlinear regression curves (GraphPad Prism Software, 2021) and the data reported as mean ± standard deviation.
In general terms: Tetrazolium assays rely on reduction of a dye to a coloured formazan, in cell work by metabolically active cells.

“Also recorded” adds a separate entry of the source.

T1 sequence (P00004 whole entry): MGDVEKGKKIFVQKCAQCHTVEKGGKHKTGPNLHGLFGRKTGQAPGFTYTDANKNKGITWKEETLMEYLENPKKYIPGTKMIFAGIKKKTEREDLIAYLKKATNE

Regarding “[Fe2Cp2(CO)(μ-CO){μ-η^1:η^3-C^3(Me)C^2(Me)C^1N(CH2Ph)2}]CF3SO3 [Compound 2c]”, the “Interaction with Cyt c (ESI-MS)” value on cytochrome c (Cyt c) is listed as “substantial chemical inertness”.
Same read-out and setting: in the case of “[Fe2Cp2(CO)(μ-CO){μ-η^1:η^3-C^3(Me)C^2(Me)C^1NMe(2-naphthyl)}]CF3SO3 [Compound 7]” it was “substantial chemical inertness”.
On to “[Fe2Cp2(CO)(μ-CO){μ-η^1:η^3-C^3(Me)C^2(Me)C^1NMe(4-C6H4OMe)}]CF3SO3 [Compound 6c]”, for which, in the assay with A2780 cells, the “Intracellular ROS production” value was “appreciable ROS production”. The “Interaction with Cyt c (ESI-MS)” value at cytochrome c (Cyt c) is listed as “substantial chemical inertness”. The substance also registered an IC50 in assay [1] of 17 ± 3 µM.
For “[Fe2Cp2(CO)(μ-CO){μ-η^1:η^3-C^3(Me)C^2(Me)C^1NMe(CH2Ph)}]CF3SO3 [Compound 5b]” the same measures were “appreciable ROS production; also recorded: most effective of the series”, “substantial chemical inertness” and 12 ± 4 µM.
As for “[Fe2Cp2(CO)(μ-CO){μ-η^1:η^3-C^3(Me)C^2(Me)C^1NMe(Cy)}]CF3SO3 [Compound 4c]”, the “Intracellular ROS production” value in the assay with A2780 cells is listed as “appreciable ROS production”. Moreover, the “Interaction with Cyt c (ESI-MS)” value on cytochrome c (Cyt c) was “substantial chemical inertness”. Further, the midpoint of inhibition in assay [1], the IC50, lay at 11.4 ± 0.9 µM. For the same substance, in assay [1] (Balb/3T3 compared to A2780cisR), the “Selectivity index vs A2780cisR” value is listed as 8.
Regarding “[Fe2Cp2(CO)(μ-CO){μ-η^1:η^3-C^3(Me)C^2HC^1NMe(Cy)}]CF3SO3 [Compound 4a]”, the “Intracellular ROS production” value with A2780 cells is “appreciable ROS production”. Also, the “Interaction with Cyt c (ESI-MS)” value at cytochrome c (Cyt c) is “substantial chemical inertness”. 11.6 ± 1.3 µM corresponded to half-maximal inhibition in assay [1] (IC50).
“[Fe2Cp2(CO)(μ-CO){μ-η^1:η^3-C^3(Ph)C^2HC^1NMe(4-C6H4OMe)}]CF3SO3 [Compound 6b]”: at cytochrome c (Cyt c), the “Interaction with Cyt c (ESI-MS)” value was “substantial chemical inertness”.
Take “[Fe2Cp2(CO)(μ-CO){μ-η^1:η^3-C^3(Ph)C^2HC^1NMe(CH2CH = CH2)}]CF3SO3 [Compound 3b]”: the “Intracellular ROS production” value with A2780 cells is “appreciable ROS production”. Besides, the “Interaction with Cyt c (ESI-MS)” value on cytochrome c (Cyt c) is given as “substantial chemical inertness”. The substance further came in with an IC50 in assay [1] of 29 ± 3 µM.

As usually defined, the IC50 is the concentration at which inhibition is half-maximal.
